Measurements published in patent publication US20080171742A1, “4-(Pyrid-2-Yl) Amino Substituted Pyrimidine as Protein Kinase Inhibitors” (AsraZeneca, priority 2005, published 2008).

System: murine fibroblasts (NIH3T3) over-expressing human IGF-1 receptor
Test: Inhibition of IGF-stimulated cell proliferation (BrdU incorporation), Test (c)
Assay type: cell-based
Conditions: NIH3T3/IGFR cells, IGF-1 20 ng/ml
Protocol: The construction of murine fibroblasts (NIH3T3) over-expressing human IGF-1 receptor has been described by Lammers et al (EMBO J, 8, 1369-1375, 1989). These cells show a proliferative response to IGF-I which can be measured by BrdU incorporation into newly synthesised DNA. Compound potency was determined as causing inhibition of the IGF-stimulated proliferation in the following assay:
Compounds are initially dissolved in DMSO to 10 mM, followed by dilutions in DMEM+1% FCS+glutamine to give a range from […] in 1-0.00045% DMSO final concentration in assay well.
Exponentially growing NIH3T3/IGFR cells were harvested and seeded in complete growth medium into a flat-bottomed 96 well tissue culture grade plate (Costar 3525) at 1.2×10^4 cells per well in a volume of 100 μl.
Growth medium was carefully removed from each well using a multi-channel pipette. Wells were carefully rinsed three times with 200 μl with HBSS. 100 μl of starvation medium was added to each well and the plate was re-incubated for 24 hours.
50 μl of a 4× concentrate of test compound was added to appropriate wells. Cells were incubated for 30 minutes with compound alone before the addition of IGF. […]
The incorporation of BrdU in the cells (after a 4 h incorporation period) was assessed using the BrdU Cell Proliferation Elisa according to the manufacturer's protocol.

Structure (SMILES)	IC50 [nM]
Cc1ccc(Nc2cc(C)nc(N3CCC[C@H]3c3cc(-c4ccccn4)no3)n2)nc1 [Example 13, S-6-Methyl-2-{2-[3-(pyrid-2-yl)isoxazol-5-yl]pyrrolidin-1-yl}-4-(5-methylpyrid-2-ylamino)pyrimidine]	130
Cc1cc(Nc2ccccn2)nc(N2CCC[C@H]2c2cc(-c3ccccn3)no2)n1 [Example 1, S-6-Methyl-2-{2-[3-(pyrid-2-yl)isoxazol-5-yl]pyrrolidin-1-yl}-4-(pyrid-2-ylamino)pyrimidine]	310
